Measured values reported in ChEMBL document CHEMBL3108676, “Discovery of a Novel Class of Imidazo[1,2-a]Pyridines with Potent PDGFR Activity and Oral Bioavailability” (ACS Med Chem Lett, 2014).
≈ marks a conversion by molar mass, not a printed value. Values belong to the compound of their own block, whether it stands above or below them. Calls of active or inactive are those of the source. The rule behind the calls is not given here.

Key:
[1] = biological target: T1, Platelet-derived growth factor receptor beta (Mus musculus, UniProt P05622); assay: Inhibition of PDGF-induced PDGFRbeta phosphorylation in mouse NIH3T3 cells incubated for 1 hr prior to PDGF induction measured after 15 mins by fluorescence assay; assay type: cell-based
T1 sequence (P05622 whole entry): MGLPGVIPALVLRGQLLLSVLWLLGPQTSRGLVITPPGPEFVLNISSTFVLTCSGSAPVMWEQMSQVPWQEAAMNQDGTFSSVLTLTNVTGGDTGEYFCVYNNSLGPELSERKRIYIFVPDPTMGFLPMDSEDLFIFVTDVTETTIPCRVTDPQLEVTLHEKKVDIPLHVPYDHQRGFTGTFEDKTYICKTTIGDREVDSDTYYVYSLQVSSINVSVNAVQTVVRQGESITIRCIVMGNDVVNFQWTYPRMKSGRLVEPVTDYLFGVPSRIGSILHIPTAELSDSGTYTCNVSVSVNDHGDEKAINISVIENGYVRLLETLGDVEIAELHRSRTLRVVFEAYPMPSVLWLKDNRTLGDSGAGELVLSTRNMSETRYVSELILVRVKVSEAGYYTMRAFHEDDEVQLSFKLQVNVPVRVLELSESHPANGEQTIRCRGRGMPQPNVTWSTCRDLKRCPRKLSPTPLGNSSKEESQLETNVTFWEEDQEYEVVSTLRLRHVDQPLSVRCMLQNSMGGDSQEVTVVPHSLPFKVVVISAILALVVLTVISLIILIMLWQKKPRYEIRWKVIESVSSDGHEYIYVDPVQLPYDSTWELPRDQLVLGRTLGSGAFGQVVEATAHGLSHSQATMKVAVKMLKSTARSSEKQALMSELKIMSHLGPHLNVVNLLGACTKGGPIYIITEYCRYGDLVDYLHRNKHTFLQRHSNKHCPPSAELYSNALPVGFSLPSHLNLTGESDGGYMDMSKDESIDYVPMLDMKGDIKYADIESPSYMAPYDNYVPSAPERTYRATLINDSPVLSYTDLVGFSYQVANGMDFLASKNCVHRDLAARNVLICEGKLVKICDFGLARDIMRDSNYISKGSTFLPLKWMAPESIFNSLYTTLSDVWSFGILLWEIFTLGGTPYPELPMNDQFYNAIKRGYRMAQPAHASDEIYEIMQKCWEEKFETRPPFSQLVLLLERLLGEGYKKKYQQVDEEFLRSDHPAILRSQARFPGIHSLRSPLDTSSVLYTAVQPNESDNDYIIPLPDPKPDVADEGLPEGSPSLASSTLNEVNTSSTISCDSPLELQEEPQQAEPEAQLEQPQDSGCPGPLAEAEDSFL

[2] = (§1) Cmax in rat at 10 mg/kg, po; assay type: ADME, organism-based; parameters: dose 10 mg/kg, route oral; conditions: in vivo
Cytochrome P450 1A2 = biological target: T2, Cytochrome P450 1A2 (Homo sapiens, UniProt P05177); assay: Inhibition of CYP1A2 (unknown origin); assay type: ADME
T2 sequence (P05177 whole entry): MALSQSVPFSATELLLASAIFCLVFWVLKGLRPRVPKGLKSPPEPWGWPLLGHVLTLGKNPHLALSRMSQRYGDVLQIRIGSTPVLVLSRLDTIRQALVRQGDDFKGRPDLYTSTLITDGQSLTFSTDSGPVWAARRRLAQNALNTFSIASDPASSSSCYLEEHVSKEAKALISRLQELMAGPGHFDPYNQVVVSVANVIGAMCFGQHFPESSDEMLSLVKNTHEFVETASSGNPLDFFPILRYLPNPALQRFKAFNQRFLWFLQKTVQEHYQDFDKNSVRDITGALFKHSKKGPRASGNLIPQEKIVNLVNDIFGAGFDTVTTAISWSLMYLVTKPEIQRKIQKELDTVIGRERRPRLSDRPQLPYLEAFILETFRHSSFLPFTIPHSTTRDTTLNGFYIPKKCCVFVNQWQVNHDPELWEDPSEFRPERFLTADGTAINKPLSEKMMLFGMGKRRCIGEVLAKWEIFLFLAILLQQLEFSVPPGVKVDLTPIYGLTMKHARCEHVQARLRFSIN

[3] = biological target: Mast/stem cell growth factor receptor Kit (Homo sapiens, UniProt P10721); assay: Inhibition of cKIT (unknown origin)
Mast/stem cell growth factor receptor Kit, sequence (P10721 whole entry): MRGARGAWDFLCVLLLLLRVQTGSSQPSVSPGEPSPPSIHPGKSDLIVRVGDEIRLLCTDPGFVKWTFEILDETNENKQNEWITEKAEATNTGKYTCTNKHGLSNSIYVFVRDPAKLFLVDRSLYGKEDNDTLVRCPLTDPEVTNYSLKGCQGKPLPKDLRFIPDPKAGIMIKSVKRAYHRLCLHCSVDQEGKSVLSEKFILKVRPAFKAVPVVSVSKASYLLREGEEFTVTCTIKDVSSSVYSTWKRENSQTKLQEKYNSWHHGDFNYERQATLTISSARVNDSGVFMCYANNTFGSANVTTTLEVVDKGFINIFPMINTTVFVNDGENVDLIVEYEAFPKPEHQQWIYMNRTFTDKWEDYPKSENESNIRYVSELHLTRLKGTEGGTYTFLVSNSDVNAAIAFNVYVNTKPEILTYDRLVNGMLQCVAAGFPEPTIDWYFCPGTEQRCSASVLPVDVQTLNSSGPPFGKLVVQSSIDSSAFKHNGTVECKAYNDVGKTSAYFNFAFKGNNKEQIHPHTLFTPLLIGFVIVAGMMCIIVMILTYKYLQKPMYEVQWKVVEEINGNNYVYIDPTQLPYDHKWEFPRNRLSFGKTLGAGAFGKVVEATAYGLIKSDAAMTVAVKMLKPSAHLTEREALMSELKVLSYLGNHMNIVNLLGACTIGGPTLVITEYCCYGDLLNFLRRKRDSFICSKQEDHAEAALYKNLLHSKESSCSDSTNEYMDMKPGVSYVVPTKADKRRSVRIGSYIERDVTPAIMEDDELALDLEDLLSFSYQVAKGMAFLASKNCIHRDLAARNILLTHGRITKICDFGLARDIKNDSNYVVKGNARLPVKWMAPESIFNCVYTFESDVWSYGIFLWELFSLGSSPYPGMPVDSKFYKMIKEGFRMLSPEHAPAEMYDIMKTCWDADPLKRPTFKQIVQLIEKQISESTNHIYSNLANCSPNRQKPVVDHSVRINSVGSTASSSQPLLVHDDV

Cytochrome P450 3A4 = Cytochrome P450 3A4 (Homo sapiens, UniProt P08684); assay: Inhibition of CYP3A4 (unknown origin); assay type: ADME
Cytochrome P450 3A4, sequence (P08684 whole entry): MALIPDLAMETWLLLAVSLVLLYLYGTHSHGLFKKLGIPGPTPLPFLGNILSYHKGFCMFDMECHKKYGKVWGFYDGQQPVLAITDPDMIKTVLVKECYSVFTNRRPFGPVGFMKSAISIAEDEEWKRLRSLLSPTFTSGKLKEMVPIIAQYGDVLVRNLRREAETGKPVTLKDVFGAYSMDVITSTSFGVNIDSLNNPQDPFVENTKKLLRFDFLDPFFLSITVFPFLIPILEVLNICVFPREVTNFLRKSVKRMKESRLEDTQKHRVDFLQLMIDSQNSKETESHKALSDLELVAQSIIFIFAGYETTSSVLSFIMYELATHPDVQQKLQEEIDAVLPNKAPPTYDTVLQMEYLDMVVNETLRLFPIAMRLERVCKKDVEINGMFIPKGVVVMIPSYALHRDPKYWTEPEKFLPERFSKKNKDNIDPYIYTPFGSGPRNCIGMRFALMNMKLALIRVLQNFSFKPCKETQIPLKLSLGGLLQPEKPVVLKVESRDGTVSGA

Cytochrome P450 2C9 = Cytochrome P450 2C9 (Homo sapiens, UniProt P11712); assay: Inhibition of CYP2C9 (unknown origin); assay type: ADME
Cytochrome P450 2C9, sequence (P11712 whole entry): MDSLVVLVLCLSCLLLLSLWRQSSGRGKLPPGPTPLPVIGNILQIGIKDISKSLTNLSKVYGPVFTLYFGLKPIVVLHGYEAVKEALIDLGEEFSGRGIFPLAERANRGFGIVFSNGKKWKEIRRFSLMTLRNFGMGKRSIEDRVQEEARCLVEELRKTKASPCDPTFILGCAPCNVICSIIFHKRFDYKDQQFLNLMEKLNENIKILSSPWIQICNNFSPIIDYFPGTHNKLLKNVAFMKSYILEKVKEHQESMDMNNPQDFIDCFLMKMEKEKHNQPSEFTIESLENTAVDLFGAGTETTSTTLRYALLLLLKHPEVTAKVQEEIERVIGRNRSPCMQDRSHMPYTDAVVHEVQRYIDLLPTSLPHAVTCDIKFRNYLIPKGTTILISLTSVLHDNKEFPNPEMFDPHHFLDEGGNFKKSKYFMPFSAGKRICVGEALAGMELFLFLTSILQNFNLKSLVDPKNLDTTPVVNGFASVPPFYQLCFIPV

[4] = Solubility of the compound; assay type: physicochemical
MDR1 = assay: Apparent permeability across apical to basolateral side in pig LLC-PK1 cells expressing MDR1 assessed as compound recovery; assay type: ADME, cell-based, Sus scrofa; conditions: read-out: Papp
[5] = (§2) AUC in rat at 10 mg/kg, po; assay type: ADME, organism-based, Plasma; parameters: dose 10 mg/kg, route oral; conditions: plasma
[6] = (§3) Apparent permeability across apical to basolateral side in pig LLC-PK1 cells; assay type: ADME, cell-based, Sus scrofa; conditions: LLC-PK1
[7] = (§4) Oral bioavailability in rat at 10 mg/kg; assay type: ADME, organism-based; conditions: in vivo
[8] = Clearance in rat at 1 mg/kg, iv; assay type: ADME, organism-based; parameters: dose 1 mg/kg, route intravenous; conditions: in vivo
Cytochrome P450 2D6 = Cytochrome P450 2D6 (Homo sapiens, UniProt P10635); assay: Inhibition of CYP2D6 (unknown origin); assay type: ADME
Cytochrome P450 2D6, sequence (P10635 whole entry): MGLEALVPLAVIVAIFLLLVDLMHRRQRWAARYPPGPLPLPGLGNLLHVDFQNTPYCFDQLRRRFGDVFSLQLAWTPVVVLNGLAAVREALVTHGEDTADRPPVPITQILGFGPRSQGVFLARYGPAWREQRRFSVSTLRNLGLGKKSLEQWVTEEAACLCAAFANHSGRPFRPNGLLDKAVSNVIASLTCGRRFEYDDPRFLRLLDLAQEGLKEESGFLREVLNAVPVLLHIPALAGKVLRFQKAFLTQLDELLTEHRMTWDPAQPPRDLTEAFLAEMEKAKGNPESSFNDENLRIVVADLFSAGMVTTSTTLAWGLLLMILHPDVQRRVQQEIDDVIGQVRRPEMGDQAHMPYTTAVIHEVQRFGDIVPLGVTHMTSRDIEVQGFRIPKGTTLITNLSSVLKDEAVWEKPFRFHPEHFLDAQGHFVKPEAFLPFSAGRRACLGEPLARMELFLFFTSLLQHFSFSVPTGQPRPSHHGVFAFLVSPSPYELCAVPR

[9] = biological target: Macrophage colony-stimulating factor 1 receptor (Homo sapiens, UniProt P07333)
Macrophage colony-stimulating factor 1 receptor, sequence (P07333 whole entry): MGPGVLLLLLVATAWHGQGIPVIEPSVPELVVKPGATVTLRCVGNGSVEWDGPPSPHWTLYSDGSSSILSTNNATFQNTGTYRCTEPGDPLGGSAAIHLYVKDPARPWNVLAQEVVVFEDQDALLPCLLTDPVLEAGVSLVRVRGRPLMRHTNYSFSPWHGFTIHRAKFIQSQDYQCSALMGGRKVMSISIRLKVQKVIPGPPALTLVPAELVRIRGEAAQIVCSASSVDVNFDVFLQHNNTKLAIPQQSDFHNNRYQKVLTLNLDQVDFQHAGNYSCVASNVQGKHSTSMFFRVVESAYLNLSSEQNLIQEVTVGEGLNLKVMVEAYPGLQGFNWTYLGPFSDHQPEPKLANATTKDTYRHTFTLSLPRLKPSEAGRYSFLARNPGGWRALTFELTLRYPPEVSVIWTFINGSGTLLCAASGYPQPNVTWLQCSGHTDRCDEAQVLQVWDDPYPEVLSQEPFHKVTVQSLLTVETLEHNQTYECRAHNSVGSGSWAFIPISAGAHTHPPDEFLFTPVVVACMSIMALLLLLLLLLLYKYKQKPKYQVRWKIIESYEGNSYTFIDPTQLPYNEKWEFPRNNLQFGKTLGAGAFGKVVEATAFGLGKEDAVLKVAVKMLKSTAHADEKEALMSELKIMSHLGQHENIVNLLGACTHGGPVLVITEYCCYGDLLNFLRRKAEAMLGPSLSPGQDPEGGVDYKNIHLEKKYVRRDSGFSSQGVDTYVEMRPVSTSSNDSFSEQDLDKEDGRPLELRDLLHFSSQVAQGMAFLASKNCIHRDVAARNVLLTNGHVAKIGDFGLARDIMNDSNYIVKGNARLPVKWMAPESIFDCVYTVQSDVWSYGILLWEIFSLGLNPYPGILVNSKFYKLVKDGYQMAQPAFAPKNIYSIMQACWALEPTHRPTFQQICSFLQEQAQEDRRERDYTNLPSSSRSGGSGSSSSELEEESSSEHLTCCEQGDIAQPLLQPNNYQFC
Description: Inhibition of cFMS (unknown origin)

[10] = Dissociation constant, pKa of the compound; assay type: physicochemical
[11] = biological target: T1, Platelet-derived growth factor receptor beta; assay: Inhibition of PDGF-induced PDGFRbeta phosphorylation in mouse NIH3T3 cells incubated for 1 hr prior to PDGF induction measured after 15 mins by fluorescence assay in presence of 50% human plasma; assay type: cell-based
Cytochrome P450 2C19 = Cytochrome P450 2C19 (Homo sapiens, UniProt P33261); assay: Inhibition of CYP2C19 (unknown origin); assay type: ADME
Cytochrome P450 2C19, sequence (P33261 whole entry): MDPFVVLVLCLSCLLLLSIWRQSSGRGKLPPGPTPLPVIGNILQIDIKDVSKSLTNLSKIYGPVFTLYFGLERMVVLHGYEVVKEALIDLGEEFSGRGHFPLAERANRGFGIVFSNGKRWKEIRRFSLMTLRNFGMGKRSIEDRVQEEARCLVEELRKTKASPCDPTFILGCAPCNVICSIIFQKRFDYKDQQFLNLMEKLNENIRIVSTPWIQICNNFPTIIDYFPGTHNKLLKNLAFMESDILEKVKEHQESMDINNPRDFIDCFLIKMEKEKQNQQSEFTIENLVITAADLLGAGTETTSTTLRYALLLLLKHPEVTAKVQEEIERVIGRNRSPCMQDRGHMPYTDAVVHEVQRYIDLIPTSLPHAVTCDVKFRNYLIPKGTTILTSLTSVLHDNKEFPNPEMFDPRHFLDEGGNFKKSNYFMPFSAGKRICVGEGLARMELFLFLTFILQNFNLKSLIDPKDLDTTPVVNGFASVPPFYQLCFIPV

Mus musculus [12] = assay: In vivo inhibition of PDGFR phosphorylation in tumor of nu/nu nude mouse xenografted with rat C6 cells at 10 to 100 mg/kg, po qd after 12 hrs; assay type: functional, organism-based
Mus musculus [13] = assay: In vivo inhibition of PDGFR phosphorylation in tumor of nu/nu nude mouse xenografted with rat C6 cells administered as po qd after 2 to 6 hrs; assay type: functional, organism-based
Rattus norvegicus [14] = assay: as §1; assay type: ADME, organism-based; parameters: dose 10 mg/kg, route oral; conditions: in vivo
Rattus norvegicus [15] = assay: as §2; assay type: ADME, organism-based, Plasma; parameters: dose 10 mg/kg, route oral; conditions: in vivo
Rattus norvegicus [16] = assay: as §4; assay type: ADME, organism-based; conditions: in vivo
[17] = AUC in cynomolgus monkey at 30 mg/kg, po; assay type: ADME, organism-based, Macaca fascicularis; parameters: dose 30 mg/kg, route oral; conditions: plasma
[18] = Cmax in cynomolgus monkey at 30 mg/kg, po; assay type: ADME, organism-based, Macaca fascicularis; parameters: dose 30 mg/kg, route oral; conditions: in vivo
[19] = Oral bioavailability in cynomolgus monkey at 30 mg/kg; assay type: ADME, organism-based, Macaca fascicularis; conditions: in vivo
[20] = biological target: Voltage-gated inwardly rectifying potassium channel KCNH2 (Homo sapiens, UniProt Q12809); assay: Inhibition of human ERG
LLC-PK1 = assay: as §3; assay type: ADME, cell-based, Sus scrofa; conditions: llc-pk1
Rattus norvegicus [21] = assay: Toxicity in rat up to 50 mg/kg, po bid administered for 2 weeks; assay type: organism-based; parameters: dose 50 mg/kg, route oral; conditions: in vivo, 336 h

Compound: COCCOc1ccn2c(-c3ccc4cccc(OC5CCNCC5)c4n3)cnc2c1
Cmax [2]: 70 ng/mL | IC50 (Cytochrome P450 1A2): > 10000 nM | IC50 [3]: 961 nM | IC50 (Cytochrome P450 3A4): > 10000 nM | IC50 (Cytochrome P450 2C9): > 10000 nM | solubility [4]: > 1000 µg/mL | recovery (MDR1): 50% | AUC [5]: 800 ng·h/mL | Papp A→B [6]: 16.3 ×10⁻⁶ cm/s | bioavailability [7]: 16% | clearance [8]: 33 mL/min/kg | IC50 [1]: 3 nM | IC50 (Cytochrome P450 2D6): > 10000 nM | IC50 [9]: > 1000 nM | pKa [10]: 9.3 | IC50 [11]: 25 nM | IC50 (Cytochrome P450 2C19): > 10000 nM

Compound: COCCOc1ccn2c(-c3ccc4cccc(OCCN)c4n3)cnc2c1
IC50 [1]: 176 nM | IC50 [9]: > 1000 nM

Compound: COCCOc1ccn2c(-c3ccc4cccc(O[C@@H]5CCNC[C@H]5F)c4n3)cnc2c1 [listing 1 of 2 here]
inhibition (Mus musculus [12]): inactive | inhibition (Mus musculus [13]): Dose-dependent effect

Compound: COCCOc1ccn2c(-c3ccc4cccc(O[C@@H]5CNC[C@H]5OC)c4n3)cnc2c1 (racemic)
IC50 [1]: 10 nM | IC50 [9]: > 1000 nM | IC50 [11]: > 1000 nM

Compound: COCCOc1ccn2c(-c3ccc4cccc(O[C@H]5CN[C@H](C(=O)OC)C5)c4n3)cnc2c1
IC50 [1]: 958 nM | IC50 [9]: > 1000 nM

Compound: COCCOc1ccn2c(-c3ccc4cccc(OC5CCN(C)CC5)c4n3)cnc2c1
IC50 [1]: 9 nM

Compound: COCCOc1ccn2c(-c3ccc4cccc(OCC(C)(C)CN)c4n3)cnc2c1
IC50 [3]: > 1000 nM | IC50 [1]: 18 nM

Compound: COCCOc1ccn2c(-c3ccc4cccc(O[C@H]5CC[C@H](N)CC5)c4n3)cnc2c1
IC50 [1]: 28 nM | IC50 [9]: > 1000 nM

Compound: COCCOc1ccn2c(-c3ccc4cccc(OCC5(F)CCNCC5)c4n3)cnc2c1
IC50 [1]: 1 nM

Compound: COCCOc1ccn2c(-c3ccc4cccc(OCc5cnc[nH]5)c4n3)cnc2c1
IC50 [1]: > 1000 nM | IC50 [9]: > 1000 nM

Compound: COCCOc1ccn2c(-c3ccc4cccc(O[C@@H]5CN[C@H](C(=O)OC)C5)c4n3)cnc2c1
IC50 [1]: > 1000 nM | IC50 [9]: > 1000 nM

More lines, main results first:

IC50 [1]: 5 nM
Compound: COCCOc1ccn2c(-c3ccc4cccc(O[C@H]5CCCNC5)c4n3)cnc2c1

Cmax (Rattus norvegicus [14]): 120 ng/mL | IC50 (Cytochrome P450 1A2): > 10000 nM | IC50 [3]: 682 nM | IC50 (Cytochrome P450 3A4): > 10000 nM | IC50 (Cytochrome P450 2C9): > 10000 nM | recovery (MDR1): 30% | AUC (Rattus norvegicus [15]): 2100 ng·h/mL | Papp A→B [6]: 4.4 ×10⁻⁶ cm/s | F (Rattus norvegicus [16]): 30% | IC50 [1]: 4 nM | IC50 (Cytochrome P450 2D6): > 10000 nM | pKa [10]: 7.4 | IC50 [11]: 63 nM | IC50 (Cytochrome P450 2C19): > 10000 nM
Compound: COCCOc1ccn2c(-c3ccc4cccc(O[C@@H]5CCNC[C@H]5F)c4n3)cnc2c1 (relative stereo)

IC50 [1]: 2 nM
Compound: COCCOc1ccn2c(-c3ccc4cccc(O[C@@H]5CCNC[C@@H]5O)c4n3)cnc2c1 (racemic)

IC50 [1]: 34 nM | IC50 [9]: > 1000 nM
Compound: COCCOc1ccn2c(-c3ccc4cccc(OCC5CCNCC5)c4n3)cnc2c1

IC50 [1]: 1 nM | IC50 [11]: 29 nM
Compound: COCCOc1ccn2c(-c3ccc4cccc(OCC5CCNC5)c4n3)cnc2c1 (racemic)

Cmax [2]: 160 ng/mL | AUC [17]: 950 ng·h/mL | Cmax [18]: 190 ng/mL | bioavailability [19]: 6% | IC50 (Cytochrome P450 1A2): > 10000 nM | IC50 [3]: 430 nM | IC50 (Cytochrome P450 2C9): > 10000 nM | EC50 (Mus musculus [13]): 0.065 µg/mL (≈ 0.149 µM) | AUC [5]: 2300 ng·h/mL | Papp (LLC-PK1): 3.7 ×10⁻⁶ cm/s | bioavailability [7]: 28% | clearance [8]: 20 mL/min/kg | IC50 [1]: 3 nM | IC50 (Cytochrome P450 2D6): > 10000 nM | IC50 [11]: 70 nM | IC50 (Cytochrome P450 2C19): > 10000 nM
Compound: COCCOc1ccn2c(-c3ccc4cccc(O[C@@H]5CCNC[C@H]5F)c4n3)cnc2c1 [listing 2 of 2 here]
IC50 [20]: 3900 nM | Activity (Rattus norvegicus [21]): Non-toxic

IC50 (Cytochrome P450 1A2): > 10000 nM | IC50 [3]: 491 nM | IC50 (Cytochrome P450 3A4): > 10000 nM | IC50 (Cytochrome P450 2C9): > 10000 nM | IC50 [1]: 3 nM | IC50 (Cytochrome P450 2D6): > 10000 nM | IC50 [11]: 55 nM | IC50 (Cytochrome P450 2C19): > 10000 nM
Compound: COCCOc1ccn2c(-c3ccc4cccc(O[C@H]5CCNC[C@@H]5F)c4n3)cnc2c1

Cmax [2]: 70 ng/mL | IC50 (Cytochrome P450 1A2): > 10000 nM | IC50 [3]: > 1000 nM | IC50 (Cytochrome P450 3A4): > 10000 nM | IC50 (Cytochrome P450 2C9): > 10000 nM | recovery (MDR1): 30% | AUC [5]: 730 ng·h/mL | Papp A→B [6]: 2.7 ×10⁻⁶ cm/s | bioavailability [7]: 13% | clearance [8]: 28 mL/min/kg | IC50 [1]: 4 nM | IC50 (Cytochrome P450 2D6): 5880 nM | pKa [10]: 7.5 | IC50 [11]: 25 nM | IC50 (Cytochrome P450 2C19): > 10000 nM
Compound: COCCOc1ccn2c(-c3ccc4cccc(O[C@@H]5CCNC[C@@H]5F)c4n3)cnc2c1 (relative stereo)

IC50 [1]: 160 nM | IC50 [9]: > 1000 nM
Compound: COCCOc1ccn2c(-c3ccc4cccc(OCC5CNCCO5)c4n3)cnc2c1 (racemic)

IC50 [1]: 72 nM
Compound: COCCOc1ccn2c(-c3ccc4cccc(O[C@@H]5CCCNC5)c4n3)cnc2c1

IC50 [1]: 3 nM
Compound: COCCOc1ccn2c(-c3ccc4cccc(O[C@@H]5CCNC[C@H]5O)c4n3)cnc2c1 (racemic)
